SMILES strings stand for the structures.

Holding throughout (format): cell-based
Test [1] concerns the target T1, IRAK4 (Homo sapiens, UniProt Q9NWZ3).
T1 construct: endogenous in cells; host or cells: Karpas299
T1 sequence (Q9NWZ3 1-460): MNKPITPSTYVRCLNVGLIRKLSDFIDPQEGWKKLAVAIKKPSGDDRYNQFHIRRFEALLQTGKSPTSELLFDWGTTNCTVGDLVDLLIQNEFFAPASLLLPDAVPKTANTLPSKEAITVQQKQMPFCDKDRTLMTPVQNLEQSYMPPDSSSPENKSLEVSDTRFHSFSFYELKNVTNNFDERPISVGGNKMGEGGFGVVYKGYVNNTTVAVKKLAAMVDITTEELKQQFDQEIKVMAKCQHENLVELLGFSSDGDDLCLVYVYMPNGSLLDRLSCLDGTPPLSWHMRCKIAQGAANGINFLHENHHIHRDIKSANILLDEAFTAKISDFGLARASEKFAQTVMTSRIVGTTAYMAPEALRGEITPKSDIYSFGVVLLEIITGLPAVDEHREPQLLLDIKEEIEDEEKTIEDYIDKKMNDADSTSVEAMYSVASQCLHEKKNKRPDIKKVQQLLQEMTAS
As to the kind of experiment: IRAK4 Degradation Assay (Karpas299, HTRF/TR-FRET). The following applies: Karpas-299 cells; for Dmax: maximum percentage of degradation. The essentials:
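Compound potency as DC50 (IC50) came from four-parameter fits of percent IRAK4 degradation. IRAK4 was measured by HTRF (665/620 nm) in lysates of Karpas299 cells seeded at 0.2 million per well. Cells had been treated with compound dilutions for 5 or 24 h.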
A general note: Time-resolved FRET reads energy transfer from a long-lived donor to a nearby acceptor.

Test [2] addresses T1, IRAK4. As to the kind of experiment: IRAK4 Degradation Assay with Human Serum (Karpas299, HTRF/TR-FRET). The conditions noted are these: Karpas-299 in human serum, 24 hrs treatment; for DC50: read-out: IRAK4 degradtion with human serum assay DC50; for Dmax: read-out: IRAK4 degradtion with human serum assay Dmax (%). An outline of the steps:
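Remaining IRAK4 measured by TR-FRET immunoassay on lysates of Karpas299 cells exposed 24 h to compound dilution series in human serum AB. DC50 derived from a Hill-slope fit of % degradation versus concentration.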

Test [3] concerns IL-6 production in human PBMC. The experiment in a line: IL-6 Production Assay in Human PBMC (LPS stimulated). The conditions noted are these: Homo sapiens, 5 h; for Emax: maximum inhibition, read-out: IL-6 (PBMC) 5 h IMax. The procedure:
Frozen human PBMC (AllCells) were thawed in RPMI 1640 medium (Thermo Scientific) supplemented with 10% heat-inactivated FBS (Thermo Scientific) and recovered at 37° C. overnight. The next day, PBMC were seeded into 96-well plates at the density of 0.2 million cells per well and treated with compounds for 24 h. Then lipopolysaccharide was added at the final concentration of 10 ng/mL for 5 h. Culture supernatant was collected for subsequent measurement of IL-6 concentration by a TR-FRET-based method (Degorce, François, et al. Current chemical genomics. 2009, 3: 22) as described by the manufacturer manual (Cisbio). FRET signals were measured with PHERAstar FSX reader (BMG Labtech).

Test [4] has as its system TNF-α production in THP-1 cells. As to the kind of experiment: TNF-α Production Assay in THP-1 Cells (LPS stimulated). The following applies: Homo sapiens, THP-1, 24 h; for Emax: maximum inhibition, read-out: TNF-α (THP-1) 24 h IMax. The essentials:
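Cells (0.2 million/well) pretreated with compounds for 24 h, then stimulated with LPS at 1 μg/mL final for 24 h. TNF-α in culture supernatant quantified by TR-FRET immunoassay.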

Setting [5] is: 5 h treatment, read-out: IRAK4 in Karpas-299 (5 h) Dmax (%).
Setting [6] is: 5 h treatment, read-out: IRAK4 in Karpas-299 (5 h) DC50.
Where [7] appears, read: 24 h treatment, read-out: IRAK4 in Karpas-299 (24 h) Dmax (%).
The mark [8] stands for this setting: 24 h treatment, read-out: IRAK4 in Karpas-299 (24 h) DC50.

As usually defined, the Dmax is the greatest extent of degradation seen. Broadly, the DC50 is the midpoint of the concentration-degradation curve. What is called IC50 is the midpoint of a concentration-inhibition curve. With `CC(C)(O)c1cc2nn([C@H]3CC[C@H](N4CCN([C@H]5C[C@H](c6ccc(N[C@H]7CCC(=O)NC7=O)cc6)C5)CC4)CC3)cc2cc1NC(=O)c1ccc2cc(C#N)cnn12` [Example 274, 3-cyano-N-(2-((1R,4r)-4-(4-((1S,3R)-3-(4-(((S)-2,6-dioxopiperidin-3-yl)amino)phenyl)cyclobutyl)piperazin-1-yl)cyclohexyl)-6-(2-hydroxypropan-2-yl)-2H-indazol-5-yl)pyrrolo[1,2-b]pyridazine-7-carboxamide], the Dmax at IRAK4 [1] (setting [5]) turned out to be 97%; on IRAK4 [1] (setting [7]), 97%; at IRAK4 [2], 99%. Also, the DC50 at IRAK4 [1] (setting [6]) was determined as 9.8 nM; on IRAK4 [1] (setting [8]), 1.6 nM; on IRAK4 [2], 3.7 nM. The same compound yielded an IC50 in test [3] of 2 nM. Besides, the Emax in test [3] is 64%.
As for `COC[C@@H]1CN(CCc2cc(F)c([C@H]3CCC(=O)NC3=O)c(F)c2)CCN1[C@H]1CC[C@H](n2cc3cc(NC(=O)c4ccc5cc(C#N)cnn45)c(C(C)(C)O)cc3n2)CC1` [Example 325, 3-cyano-N-(2-((1S,4r)-4-((S)-4-(4-((R)-2,6-dioxopiperidin-3-yl)-3,5-difluorophenethyl)-2-(methoxymethyl)piperazin-1-yl)cyclohexyl)-6-(2-hydroxypropan-2-yl)-2H-indazol-5-yl)pyrrolo[1,2-b]pyridazine-7-carboxamide], the Dmax at IRAK4 [1] (setting [7]) came out at 96%. Besides, on IRAK4 [1] (setting [8]), the DC50 was determined as 0.9 nM. Moreover, at IRAK4 [2], the DC50 worked out at 15 nM and the Dmax worked out at 91%. In addition, in test [3], the half-maximal inhibitory concentration (IC50) stood at 4.2 nM and the Emax came out at 72%.
Take `COc1cc2nn([C@H]3CC[C@H](N4CCN(CC5CN(c6cc(F)c([C@H]7CCC(=O)NC7=O)c(F)c6)C5)CC4)CC3)cc2cc1C(=O)Nc1cnc2cccnn12` [Example 345, 2-((1r,4r)-4-(4-((1-(4-((R)-2,6-dioxopiperidin-3-yl)-3,5-difluorophenyl)azetidin-3-yl)methyl)piperazin-1-yl)cyclohexyl)-N-(imidazo[1,2-b]pyridazin-3-yl)-6-methoxy-2H-indazole-5-carboxamide]: the Dmax on IRAK4 [1] (setting [7]) is 98%; at IRAK4 [2] it was 96%. Also, the DC50 on IRAK4 [1] (setting [8]) stood at 0.2 nM; on IRAK4 [2], 0.7 nM. The compound further gave an IC50 in test [3] of 3.5 nM. In addition, the Emax in test [3] came to 60%.
Consider `CC(C)(O)c1cc2nn(C34CC(N5CCN(CC6CN(c7cc(F)c(N8CCC(=O)NC8=O)c(F)c7)C6)CC5)(C3)C4)cc2cc1NC(=O)c1ccc2cc(C#N)cnn12` [Example 354, 3-cyano-N-(2-(3-(4-((1-(4-(2,4-dioxotetrahydropyrimidin-1(2H)-yl)-3,5-difluorophenyl)azetidin-3-yl)methyl)piperazin-1-yl)bicyclo[1.1.1]pentan-1-yl)-6-(2-hydroxypropan-2-yl)-2H-indazol-5-yl)pyrrolo[1,2-b]pyridazine-7-carboxamide], for which, on IRAK4 [1] (setting [7]), the Dmax amounted to 98%. Moreover, at IRAK4 [1] (setting [8]), the DC50 is 2.4 nM. On IRAK4 [2], the DC50 is 10 nM and the Dmax is 93%. Further, in test [4], half-maximal inhibition (IC50) was put at 44 nM and the Emax was 96%.
Turning to `COc1cc(N2CC(C(=O)N3CCN([C@H]4CC[C@H](n5cc6cc(NC(=O)c7ccc8cc(C#N)cnn78)c7c(c6n5)OCO7)CC4)CC3)C2)ccc1[C@H]1CCC(=O)NC1=O` [Example 356], the Dmax at IRAK4 [1] (setting [7]) was determined as 98%. In addition, the DC50 on IRAK4 [1] (setting [8]) was 1.3 nM. Besides, on IRAK4 [2], the DC50 was determined as 14 nM and the Dmax came to 102%. Besides, in test [4], the IC50 came to 12 nM and the Emax is 90%.
Take `COC[C@@H]1CN([C@H]2CC[C@H](n3cc4cc(NC(=O)c5ccc6cc(C#N)cnn56)c(C(C)(C)O)cc4n3)CC2)CCN1CC1CN(c2cc(F)c([C@H]3CCC(=O)NC3=O)c(F)c2)C1` [Example 358, 3-cyano-N-(2-((1S,4r)-4-((S)-4-((1-(4-((R)-2,6-dioxopiperidin-3-yl)-3,5-difluorophenyl)azetidin-3-yl)methyl)-3-(methoxymethyl)piperazin-1-yl)cyclohexyl)-6-(2-hydroxypropan-2-yl)-2H-indazol-5-yl)pyrrolo[1,2-b]pyridazine-7-carboxamide]: the Dmax was determined as 95% on IRAK4 [1] (setting [5]), 99% on IRAK4 [1] (setting [7]) and 96% on IRAK4 [2]. For the same compound, the DC50 was 1.9 nM on IRAK4 [1] (setting [6]), 0.5 nM on IRAK4 [1] (setting [8]) and 5.4 nM at IRAK4 [2]. In test [4], this compound registered an IC50 of 17 nM. Also, in test [4], the Emax was 96%.
Consider `CC(C)(O)c1cc2nn(C3CCC(N4C[C@@H]5CN(C6CN(c7cc(F)c([C@H]8CCC(=O)NC8=O)c(F)c7)C6)C[C@H]5C4)CC3)cc2cc1NC(=O)c1ccc2cc(C#N)cnn12` (stereo partly drawn) [Example 360, 3-cyano-N-(2-((1R,4r)-4-((3aR,6aR)-5-(1-(4-((R)-2,6-dioxopiperidin-3-yl)-3,5-difluorophenyl)azetidin-3-yl)hexahydropyrrolo[3,4-c]pyrrol-2(1H)-yl)cyclohexyl)-6-(2-hydroxypropan-2-yl)-2H-indazol-5-yl)pyrrolo[1,2-b]pyridazine-7-carboxamide], for which the Dmax at IRAK4 [1] (setting [7]) turned out to be 97%. In addition, the DC50 on IRAK4 [1] (setting [8]) came to 0.6 nM. Moreover, at IRAK4 [2], the DC50 came out at 1.8 nM and the Dmax stood at 98%. In addition, in test [3], the IC50 worked out at 0.6 nM and the Emax was found to be 67%.
With `CC(C)(O)c1cc2nn([C@H]3CC[C@H](N4C[C@@H]5CN(CCc6cc(F)c([C@H]7CCC(=O)NC7=O)c(F)c6)C[C@H]5C4)CC3)cc2cc1NC(=O)c1ccc2cc(C#N)cnn12` [Example 362, 3-cyano-N-(2-((1S,4r)-4-((3aS,6aS)-5-(4-((R)-2,6-dioxopiperidin-3-yl)-3,5-difluorophenethyl)hexahydropyrrolo[3,4-c]pyrrol-2(1H)-yl)cyclohexyl)-6-(2-hydroxypropan-2-yl)-2H-indazol-5-yl)pyrrolo[1,2-b]pyridazine-7-carboxamide], on IRAK4 [1] (setting [7]), the Dmax was determined as 98%. Also, the DC50 on IRAK4 [1] (setting [8]) amounted to 2.5 nM. Besides, at IRAK4 [2], the DC50 was determined as 5.1 nM and the Dmax turned out to be 97%. Also, in test [3], half-maximal inhibition (IC50) required 6 nM and the Emax is 71%.
In the case of `CC(C)(O)c1cc2nn([C@H]3CC[C@H](N4CCN([C@H]5C[C@@H](c6cc(F)c([C@H]7CCC(=O)NC7=O)c(F)c6)C5)CC4)CC3)cc2cc1NC(=O)c1ccc2cc(C#N)cnn12` [Example 363, 3-cyano-N-(2-((1S,4r)-4-(4-((1S,3S)-3-(4-((R)-2,6-dioxopiperidin-3-yl)-3,5-difluorophenyl)cyclobutyl)piperazin-1-yl)cyclohexyl)-6-(2-hydroxypropan-2-yl)-2H-indazol-5-yl)pyrrolo[1,2-b]pyridazine-7-carboxamide], the Dmax on IRAK4 [1] (setting [5]) came out at 95%; on IRAK4 [1] (setting [7]) it was 96%; at IRAK4 [2] it was 97%. Further, the DC50 at IRAK4 [1] (setting [6]) stood at 1.2 nM; on IRAK4 [1] (setting [8]), 0.8 nM; at IRAK4 [2], 5.9 nM. Moreover, in test [3], the IC50 was found to be 2.2 nM. In addition, the Emax in test [3] came out at 67%.
Consider `COC[C@H]1CN([C@H]2CC[C@H](n3cc4cc(NC(=O)c5ccc6cc(C#N)cnn56)c(C(C)(C)O)cc4n3)CC2)CCN1CC1CN(c2cc(F)c([C@H]3CCC(=O)NC3=O)c(F)c2)C1` [Example 367, 3-cyano-N-(2-((1R,4r)-4-((R)-4-((1-(4-((R)-2,6-dioxopiperidin-3-yl)-3,5-difluorophenyl)azetidin-3-yl)methyl)-3-(methoxymethyl)piperazin-1-yl)cyclohexyl)-6-(2-hydroxypropan-2-yl)-2H-indazol-5-yl)pyrrolo[1,2-b]pyridazine-7-carboxamide], for which the Dmax on IRAK4 [1] (setting [5]) is 97%; at IRAK4 [1] (setting [7]), 99%; at IRAK4 [2], 96%. The DC50 at IRAK4 [1] (setting [6]) was found to be 3.1 nM; on IRAK4 [1] (setting [8]) it was 0.7 nM; at IRAK4 [2] it was 12 nM. Further, half-maximal inhibition in test [4] (IC50) was put at 11 nM. Besides, the Emax in test [4] was 96%.

(Values after patent US20250195513A1, “DEGRADATION OF IRAK4 BY CONJUGATION OF IRAK4 INHIBITORS WITH E3 LIGASE LIGAND AND METHODS OF USE” (BeiGene, Ltd., priority 2022, published 2025).)
